According to article PMC8708875 (Pharmaceutics, 2021):
Like-named read-outs stand apart in the source and are kept apart here.

Assays:
Glut4 = assay: GLUT4 translocation assay (subcellular fractions, Western blot); format: cell-based, mouse
Method: C2C12 differentiated myotubes were starved with free-FBS low glucose DMEM for 3 h, and then treated with saline or 5 µM of BMS-536924 insulin receptor inhibitor (Sigma-Aldrich, Sao Paulo, Brazil) for 30 min. Next, C2C12 were incubated in the presence of either vehicle, insulin (100 nM) or Ric4 (100 µM) for 30 min. As described by Tortorella and Pilch, 2002, cells were washed three times with PBS, and homogenized with 40 strokes of a glass tissue grinder in buffer containing sucrose 255 mM, disodium 4 mM, EDTA 20 mM, 4-(2-hydroxyethyl)-1-piperazineethanesulfonic acid (HEPES) 10 mM, pH 7.4, leupeptin 10 µM, pepstatin 1µM, aprotinin 1 µM, phenylmethylsulfonyl fluoride (PMSF) 1 mM, and benzamidine 5 mM (HES buffer). The homogenate was centrifuged at 19,000× g for 20 min. The pellet was saved (P1). The supernatant was recovered and centrifuged at 40,000× g for 20 min. The pellet (MF1) was resuspended in HES buffer. The supernatant was further centrifuged at 180,000× g for 1.5 h and the pellet (MF2) was resuspended in HES buffer. Both pellets MF1 and MF2, referred to as microsomal fraction (MF) correspond to high- and low-density microsomes. The pellet from the first centrifugation (P1) was resuspended in HES buffer, layered onto a 1.12 M sucrose cushion in 20 mM HEPES and 1 mM disodium EDTA, and centrifuged at 100,000× g for 1 h. The pellet (nuclear/endoplasmic reticulum fraction -N/ER) was resuspended in a buffer containing 20 mM Tris (pH 7.4), 50 mM NaCl, 2% Nonidet P-40, 0.5% deoxycholate, 0.2% SDS, and the protease inhibitor cocktail (#P8340; Sigma Aldrich, SP, Brazil). The interphase of the sucrose cushion was collected and pelleted at 40,000× g for 20 min. This PM-containing pellet (PM) was resuspended in PBS plus protease inhibitors. All centrifugations were performed at 4 °C with a Beckman Coulter Ultracentrifuge. Total protein of all samples was determined using Pierce™ BCA Protein Assay Kit (ThermoFisher, Sao Paulo, Brazil). Proteins were submitted to Western blot analysis as described above, using as primary antibody anti-Glut4 (1:1000, Cell Signaling, Boston, MA, USA).
Figure 4 Glucose uptake and GLUT4 translocation induced by Ric4 in C2C12 cells. C2C12 cells were previously incubated in serum-free and glucose-free DMEM medium, then incubated with HEPES buffer for 30 min and then incubated for a further 30 min in glucose-uptake buffer containing vehicle, Ric4 (100 µM), or insulin (100 nM) in the presence of ^3H-glucose (1 µCi/mL) or 2-NBDG (80 µM). After incubations cells were lysed with 50 μL of 0.1 N NaOH and fluorescence or radiation of aliquots from the lysate were measured (A). Epididymal adipose tissue explants (20–25 mg) were incubated in Krebs–Ringer bicarbonate buffer containing glucose 5.5 mM and 1 μCi/mL of ^3H-deoxyglucose supplemented with 2% fatty acid-free for 30 min at 37 °C in the presence or absence of insulin (100 nM) or Ric4 (100 µM). The explants were processed to evaluate the uptake of ^3H-deoxyglucose (B). Myotubes were previously incubated in serum-free and glucose-free DMEM medium and then treated with control vehicle PBS or Ric4 (100 µM) for 30 min. Proteins from subcellular fractions: N/ER (C), microsomal (D), plasma membrane (E), were isolated and the expression Glut4 was analyzed by Western blot. Images were quantified using ImageJ 1.49 software. The statistical comparisons were performed using analysis of variance (ANOVA), followed by ad-hoc Tukey’s test using GraphPad Prism software * p < 0.05; # p < 0.05; **** p < 0.0001.

[1] = system: epididymal adipose tissue and tibial skeletal muscle of WT mice; assay: mRNA expression of energy metabolism genes in tissues after ip administration (qPCR); format: in vivo, mouse; details: 600 µg/kg ip
Method: Real-time PCR (qPCR) experiments were performed to evaluate the mRNA expression levels, at basal and under stimulus, for peroxisome proliferator activator receptor gamma (PPARγ), peroxisome proliferator activator receptor alpha (PPARa), cAMP responsive element binding protein 1 (Creb1), aldolase A, fructose-bisphosphate (ALDOA), cytochrome c oxidase subunit IV isoform 1 (Cox4i1), phosphoglycerate mutase 2 (PGAM2), troponin I, skeletal, fast 2 (TNNI2), […] (TNNT3), small muscle protein X-linked (SMPX), myosin, […] (MYH1), insulin-growth factor 1 (IGF1), Glucose transporter 4 (GLUT4), and lipoprotein lipase (LPL). Primers sequences are described in Supplementary Materials (Table S1). […] Quantitative PCRs were performed using the Prism 7900 sequence detection system (Applied Biosystems, Foster City, CA, USA) with 100 nM primer and 20 ng cDNA. The expression of mRNA targets was normalized by expression of gene glyceraldehyde 3-phosphate dehydrogenase (GAPDH) or hipoxantina-guanina fosforibosiltransferase (HPRT) and expressed as relative values using the 2 DDCt method. […]
Figure 6 Ric4 stimulated mRNA expression levels of genes related to energy metabolism. WT mice were treated with vehicle (Control) or Ric4 (600 ug/kg, ip) and gene expression was evaluated by qPCR. […]

in vitro = in vitro ADME, mouse; details: WT mice liver or kidney crude extracts; fragments sequenced by mass spectrometry after HPLC; data not shown
Method: Peptide hydrolyses were analyzed by reverse phase liquid chromatography (HPLC) using a C18 µBond-pak column (4.6 × 250 mm; Millipore Corp.) with a linear gradient of 5–65% acetonitrile in 0.1% TFA for 20 min at a flow rate of 1 mL/min, and absorbance monitored at a wavelength of 214 nm, as previously described. Cleaved peptide bonds were identified by mass spectrometry sequencing after isolating the cleavage fragments manually after HPLC, as previously described (data not shown). Control enzyme assays were conducted using bradykinin ([…]; 50 µM) as a standard substrate.

[2] = C2C12 myotubes, Ric4 100 µM, insulin 100 nM, 30 min, Western blot

Row | Substance | Glut4 presence in microsomal membranes (Glut4) | translocation of Glut4 to plasma membrane (Glut4; [2]) | translocation of Glut4 to rough endoplasmic reticulum (RER) membranes (N/ER fraction) (Glut4; [2]) | GLUT4 mRNA levels in epididymal adipose tissue [1] | expression levels of genes related to energy metabolism in epididymal adipose tissue (LPL, PPARγ, PPARa, GLUT4, IGF1) [1] | initial enzymatic cleavage site (in vitro) | Glut4 presence in microsomal membranes (Glut4; [2])
1 | LASVSTVLTSKYR [Ric4, intracellular peptide derived from hemoglobin alpha subunit, last 13 C-terminal amino acids] | decreasing | induced translocation of Glut4 to plasma membrane | increased | increased | stimulated the expression levels | Leu8-Thr9 peptide bond | 
2 | Insulin |  | induced translocation of Glut4 to plasma membrane | not observed |  |  |  | not observed
